Laboratory results: article PMC9656319, “Pharmacokinetics and Tissue Distribution of Coumarins from Tagetes lucida in an LPS-Induced Neuroinflammation Model” (Plants, 2022)
Blank lines part the entries; values can stand above or below the compound they belong to.

Experiments:
[1] = Pharmacokinetic study in plasma after oral hexanic extract of Tagetes lucida, healthy and LPS-damaged mice; assay type: in vivo, ICR mice; settings: for amount of drug available in the plasma, LPS mice compared to healthy subjects / Cmax / AUC(0-inf) / MRT / Tmax / half-life / AUC(0-t) / Cl/F: 10 mg/kg oral hexanic extract; for amount of drug available in the plasma, LPS mice compared to healthy subjects: concentration-time profiles (Figure 3); for Cmax / AUC(0-inf) / MRT / Tmax / half-life / AUC(0-t): ICR, mouse, po, 10 mg/kg; for Cmax: non-compartmental; for Cmax / AUC(0-inf) / MRT / Tmax / half-life / AUC(0-t) / Cl/F: mean ± SEM (n = 5); for AUC(0-t): to 6 h
Experimental: The optimized HPLC-validated method for the quantification of coumarins present in the hexane extract of T. lucida was used to evaluate the concentration profiles over time in the plasma, brain, kidney, and spleen biological matrices after an oral administration of 10 mg/kg of the extract.
Blood samples were obtained from the retro-orbital sinus of mice and collected in heparinized tubes. Plasma was separated by centrifugation at 3500 rpm for 5 min and stored in new Eppendorf tubes at −70 °C, until further processing.
One hundred microliters of plasma and organs samples, spiked with calibration and QC concentration or samples from the pharmacokinetic study, were mixed with 300 µL of acetonitrile containing the IS at 10 µg/mL for protein precipitation, and vortexed for 3 min. Then, 200 µL of dichloromethane were added, for liquid–liquid extraction of the bioactive compounds, and vortexed for 5 min. The mixture was centrifuged at 14,000 rpm for 10 min, and the extracted organic layers were placed in new tubes, until completely dry at room temperature. For quantitative analysis, samples were resuspended in 100 µL of methanol, transferred to sampling vials, and injected into the chromatographic system, described below.
A pharmacokinetic study was carried out in sixty mice, divided in six subgroups, according to sample collection times. An acute inflammation process by the intraperitoneal (i.p.) administration of LPS at 2 mg/kg was induced in half of the mice per group, while the other half received an i.p. injection of saline solution. Ten min after the damage was induced, the mice were administered with an oral dose of 10 mg/kg of the bioactive fraction dissolved in a 1% Tween-20 aqueous solution. Blood and tissue samples were obtained and processed at 0, 0.25, 0.75, 1.5, 2, 4, and 6 h post-dosing, as indicated in the “Samples collection” and “Plasma and tissue samples processing” sections.
Pharmacokinetic parameters of PE, SC, DF, HR, and PU in plasma were calculated by PKSolver software.

[2] = Stability of the analytes in spiked plasma, brain, kidney and spleen matrices (autosampler, long-term, freeze-thaw); assay type: physicochemical, mice; settings: for Stability Autosampler RE (%): processed samples in autosampler vials 24 h room temperature; for Stability Freeze-Thaw RE (%): three cycles (−4 °C to 25 °C); for Stability Long-Term RE (%): −70 °C for 30 days
Experimental: The stability of the compounds obtained from each enriched matrices at the QC concentrations was evaluated under different conditions that covered the processing, handling, and storage phases that could be developed throughout the study.
Individual stock solutions of PE, SC, DF, HR, PU, and rutin (IS) were prepared separately in methanol (1 mg/mL) and stored at −4 °C until use. From the stocks, a working solution in methanol was prepared at a concentration of 200 µg/mL of each coumarin. Blank plasma or organs supernatant samples (80 µL) were spiked with 20 µL of serial dilutions of working solution to obtain calibration curves ranging between 0.156, 0.312, 0.625, 1.25, 2.5, 5, 10, 20, and 40 µg/mL of each coumarin. Quality control (QC) samples were prepared at three levels of 0.3 (low), 3 (medium), and 30 (high) µg/mL for each coumarin.
The stability of the analytes in plasma, brain, kidneys, and spleen was evaluated by the analyzed concentrations of QC subjected to three different conditions. Short-term stability was determined by analysis of samples processed in the autosampler vials at 24 h at room temperature. Long-term stability was tested on samples stored at −70 °C for 30 days. Freeze-thaw stability was determined after three cycles (−4 °C to 25 °C) on three consecutive days.

[3] = plasma, LPS-damaged ICR mice (LPS 2 mg/kg i.p.)

Stability Autosampler RE (%) ([2]; brain, nominal 0.3 µg/mL): -4.07% | Stability Freeze-Thaw RE (%) ([2]; brain, nominal 0.3 µg/mL): 0.03% | Stability Long-Term RE (%) ([2]; brain, nominal 0.3 µg/mL): -0.62% | Stability Autosampler RE (%) ([2]; brain, nominal 3.0 µg/mL): 3.73% | Stability Freeze-Thaw RE (%) ([2]; brain, nominal 3.0 µg/mL): -6.72% | Stability Long-Term RE (%) ([2]; brain, nominal 3.0 µg/mL): 0.46% | Stability Autosampler RE (%) ([2]; brain, nominal 30.0 µg/mL): 3.21% | Stability Freeze-Thaw RE (%) ([2]; brain, nominal 30.0 µg/mL): -0.35% | Stability Long-Term RE (%) ([2]; brain, nominal 30.0 µg/mL): -4.35% | Stability Autosampler RE (%) ([2]; kidney, nominal 0.3 µg/mL): 5.83% | Stability Freeze-Thaw RE (%) ([2]; kidney, nominal 0.3 µg/mL): -0.65% | Stability Long-Term RE (%) ([2]; kidney, nominal 0.3 µg/mL): 5.19% | Stability Autosampler RE (%) ([2]; kidney, nominal 3.0 µg/mL): 4.79% | Stability Freeze-Thaw RE (%) ([2]; kidney, nominal 3.0 µg/mL): 0.82% | Stability Long-Term RE (%) ([2]; kidney, nominal 3.0 µg/mL): 8.12% | Stability Autosampler RE (%) ([2]; kidney, nominal 30.0 µg/mL): 0.66% | Stability Freeze-Thaw RE (%) ([2]; kidney, nominal 30.0 µg/mL): 0.47% | Stability Long-Term RE (%) ([2]; kidney, nominal 30.0 µg/mL): 5.67% | Stability Autosampler RE (%) ([2]; plasma, nominal 0.3 µg/mL): 2.59% | Stability Freeze-Thaw RE (%) ([2]; plasma, nominal 0.3 µg/mL): -12.33% | Stability Long-Term RE (%) ([2]; plasma, nominal 0.3 µg/mL): -6.74% | Stability Autosampler RE (%) ([2]; plasma, nominal 3.0 µg/mL): -1.38% | Stability Freeze-Thaw RE (%) ([2]; plasma, nominal 3.0 µg/mL): 2.47% | Stability Long-Term RE (%) ([2]; plasma, nominal 3.0 µg/mL): -3.13% | Stability Autosampler RE (%) ([2]; plasma, nominal 30.0 µg/mL): 4.21% | Stability Freeze-Thaw RE (%) ([2]; plasma, nominal 30.0 µg/mL): 0.49% | Stability Long-Term RE (%) ([2]; plasma, nominal 30.0 µg/mL): -3.40% | Stability Autosampler RE (%) ([2]; spleen, nominal 0.3 µg/mL): 6.88% | Stability Freeze-Thaw RE (%) ([2]; spleen, nominal 0.3 µg/mL): -0.67% | Stability Long-Term RE (%) ([2]; spleen, nominal 0.3 µg/mL): 5.43% | Stability Autosampler RE (%) ([2]; spleen, nominal 3.0 µg/mL): -1.66% | Stability Freeze-Thaw RE (%) ([2]; spleen, nominal 3.0 µg/mL): 0.49% | Stability Long-Term RE (%) ([2]; spleen, nominal 3.0 µg/mL): 7.09% | Stability Autosampler RE (%) ([2]; spleen, nominal 30.0 µg/mL): 1.50% | Stability Freeze-Thaw RE (%) ([2]; spleen, nominal 30.0 µg/mL): -1.06% | Stability Long-Term RE (%) ([2]; spleen, nominal 30.0 µg/mL): 7.60%
SMILES: COc1cc2ccc(=O)oc2c(OC)c1OC [DF, dimethylfraxetin]
amount of drug available in the plasma, LPS mice compared to healthy subjects [1]: three-fold higher | Cmax [1, 3]: 1820 ± 270 ng/mL | AUC(0-inf) ([1]; plasma, LPS-damaged ICR mice): 3610 ± 400 ng·h/mL | MRT ([1]; plasma, LPS-damaged ICR mice): 2.72 ± 0.3 h | Tmax ([1]; plasma, LPS-damaged ICR mice): 0.6 ± 0.24 h | half-life ([1]; plasma, LPS-damaged ICR mice): 1.5 ± 0.37 h | AUC(0-t) ([1]; plasma, LPS-damaged ICR mice): 3250 ± 310 ng·h/mL | AUC(0-inf) ([1]; plasma, healthy ICR mice): 1710 ± 190 ng·h/mL | MRT ([1]; plasma, healthy ICR mice): 2.35 ± 0.33 h | Tmax ([1]; plasma, healthy ICR mice): 1.2 ± 0.31 h | half-life ([1]; plasma, healthy ICR mice): 0.98 ± 0.27 h | Cmax ([1]; plasma, healthy ICR mice): 580 ± 20 ng/mL | AUC(0-t) ([1]; plasma, healthy ICR mice): 1640 ± 170 ng·h/mL | pharmacokinetic characteristics in words ([1]; LPS-treated mice, plasma, Figure 3b, 3c): fast distribution and subsequent elimination | Cl/F ([1]; plasma, LPS-damaged ICR mice): 28.81 ± 2.51 (mg/kg)/(μg/mL)/h | increase in the Cmax in the damaged animals versus healthy ([1]; plasma, LPS-damaged vs healthy mice): up to three times more | Cl/F ([1]; plasma, healthy ICR mice): 62.45 ± 9.38 (mg/kg)/(μg/mL)/h

Stability Autosampler RE (%) ([2]; brain, nominal 0.3 µg/mL): -3.47% | Stability Freeze-Thaw RE (%) ([2]; brain, nominal 0.3 µg/mL): -0.69% | Stability Long-Term RE (%) ([2]; brain, nominal 0.3 µg/mL): -0.21% | Stability Autosampler RE (%) ([2]; brain, nominal 3.0 µg/mL): 2.31% | Stability Freeze-Thaw RE (%) ([2]; brain, nominal 3.0 µg/mL): -5.14% | Stability Long-Term RE (%) ([2]; brain, nominal 3.0 µg/mL): -0.98% | Stability Autosampler RE (%) ([2]; brain, nominal 30.0 µg/mL): 3.86% | Stability Freeze-Thaw RE (%) ([2]; brain, nominal 30.0 µg/mL): -1.02% | Stability Long-Term RE (%) ([2]; brain, nominal 30.0 µg/mL): -4.72% | Stability Autosampler RE (%) ([2]; kidney, nominal 0.3 µg/mL): 8.17% | Stability Freeze-Thaw RE (%) ([2]; kidney, nominal 0.3 µg/mL): 2.03% | Stability Long-Term RE (%) ([2]; kidney, nominal 0.3 µg/mL): 5.12% | Stability Autosampler RE (%) ([2]; kidney, nominal 3.0 µg/mL): 2.81% | Stability Freeze-Thaw RE (%) ([2]; kidney, nominal 3.0 µg/mL): -0.62% | Stability Long-Term RE (%) ([2]; kidney, nominal 3.0 µg/mL): 3.06% | Stability Autosampler RE (%) ([2]; kidney, nominal 30.0 µg/mL): 1.35% | Stability Freeze-Thaw RE (%) ([2]; kidney, nominal 30.0 µg/mL): 2.25% | Stability Long-Term RE (%) ([2]; kidney, nominal 30.0 µg/mL): 3.32% | Stability Autosampler RE (%) ([2]; plasma, nominal 0.3 µg/mL): 8.34% | Stability Freeze-Thaw RE (%) ([2]; plasma, nominal 0.3 µg/mL): 0.67% | Stability Long-Term RE (%) ([2]; plasma, nominal 0.3 µg/mL): 9.39% | Stability Autosampler RE (%) ([2]; plasma, nominal 3.0 µg/mL): 12.83% | Stability Freeze-Thaw RE (%) ([2]; plasma, nominal 3.0 µg/mL): -7.90% | Stability Long-Term RE (%) ([2]; plasma, nominal 3.0 µg/mL): 3.99% | Stability Autosampler RE (%) ([2]; plasma, nominal 30.0 µg/mL): 14.32% | Stability Freeze-Thaw RE (%) ([2]; plasma, nominal 30.0 µg/mL): -5.47% | Stability Long-Term RE (%) ([2]; plasma, nominal 30.0 µg/mL): 3.55% | Stability Autosampler RE (%) ([2]; spleen, nominal 0.3 µg/mL): 5.46% | Stability Freeze-Thaw RE (%) ([2]; spleen, nominal 0.3 µg/mL): -0.63% | Stability Long-Term RE (%) ([2]; spleen, nominal 0.3 µg/mL): 0.22% | Stability Autosampler RE (%) ([2]; spleen, nominal 3.0 µg/mL): -0.16% | Stability Freeze-Thaw RE (%) ([2]; spleen, nominal 3.0 µg/mL): 4.87% | Stability Long-Term RE (%) ([2]; spleen, nominal 3.0 µg/mL): 7.44% | Stability Autosampler RE (%) ([2]; spleen, nominal 30.0 µg/mL): 1.18% | Stability Freeze-Thaw RE (%) ([2]; spleen, nominal 30.0 µg/mL): 0.49% | Stability Long-Term RE (%) ([2]; spleen, nominal 30.0 µg/mL): 2.92%
SMILES: COc1ccc2ccc(=O)oc2c1 [HR, herniarin]
amount of drug available in the plasma, LPS mice compared to healthy subjects [1]: three-fold higher | Cmax [1, 3]: 1480 ± 190 ng/mL | AUC(0-inf) ([1]; plasma, LPS-damaged ICR mice): 3210 ± 380 ng·h/mL | MRT ([1]; plasma, LPS-damaged ICR mice): 2.77 ± 0.25 h | Tmax ([1]; plasma, LPS-damaged ICR mice): 0.25 h | half-life ([1]; plasma, LPS-damaged ICR mice): 1.49 ± 0.35 h | AUC(0-t) ([1]; plasma, LPS-damaged ICR mice): 2950 ± 280 ng·h/mL | AUC(0-inf) ([1]; plasma, healthy ICR mice): 1030 ± 140 ng·h/mL | MRT ([1]; plasma, healthy ICR mice): 2.77 ± 0.35 h | Tmax ([1]; plasma, healthy ICR mice): 0.95 ± 0.35 h | half-life ([1]; plasma, healthy ICR mice): 1.66 ± 0.46 h | Cmax ([1]; plasma, healthy ICR mice): 620 ± 340 ng/mL | AUC(0-t) ([1]; plasma, healthy ICR mice): 920 ± 120 ng·h/mL | Cl/F ([1]; plasma, LPS-damaged ICR mice): 32.50 ± 2.91 (mg/kg)/(μg/mL)/h | Cl/F ([1]; plasma, healthy ICR mice): 103.7 ± 13.0 (mg/kg)/(μg/mL)/h
